From patent publication US9296723B2, “NAMPT inhibitors” (AbbVie Inc., priority 2012, dated 2016)

Key:
NAMPT [1] = target: T1, NAMPT (Homo sapiens, UniProt P43490); assay: Time-Resolved Fluorescence Resonance Energy Transfer (TR-FRET) Binding Assay of NAMPT; conditions: 6.8 nM NAMPT, 200 nM probe, equilibrated 3 hours, no substrates
How it was run: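 Compound was mixed with enzyme, probe and antibody and equilibrated 3 h at room temperature. TR-FRET read at Ex 337 nm, Em 520/495 nm. Ratios were normalized to controls and fitted to a four-parameter logistic equation for IC50.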

PC3 cells = assay: NAMPT Cell Proliferation Assay (Cell Titer Glo); assay type: cell-based; conditions: Homo sapiens, PC-3, 120 h, incubated 5 days, cell viability
How it was run: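 PC3 cells (500/well, RPMI with 10% heat-inactivated FBS) were exposed to 10-fold compound dilutions from […] for 5 days at 37 °C, 5% CO2. Viability was read with Cell Titer Glo; IC50 from sigmoidal fit of percent inhibition.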

NAMPT [2] = target: T1, NAMPT; assay: TR-FRET Binding Assay of NAMPT with PRPP; conditions: 2 nM NAMPT, 2 nM probe, 200 µM PRPP and 2.5 mM ATP, equilibrated 16 hours
Method: Time-Resolved Fluorescence Resonance Energy Transfer (TR-FRET) Binding Assay of NAMPT with PRPP
Compound handling and data processing were identical to the assay in the absence of substrates (above). Final concentrations were 1× assay buffer, 2% DMSO, 2 nM NAMPT, 2 nM probe, 1 nM Tb-anti-His antibody (Invitrogen #PV5895), 200 µM PRPP and 2.5 mM ATP. Reactions were equilibrated for 16 hours prior to measurement to allow for potential enzymatic modification of test compounds.

T1 sequence (P43490 whole entry): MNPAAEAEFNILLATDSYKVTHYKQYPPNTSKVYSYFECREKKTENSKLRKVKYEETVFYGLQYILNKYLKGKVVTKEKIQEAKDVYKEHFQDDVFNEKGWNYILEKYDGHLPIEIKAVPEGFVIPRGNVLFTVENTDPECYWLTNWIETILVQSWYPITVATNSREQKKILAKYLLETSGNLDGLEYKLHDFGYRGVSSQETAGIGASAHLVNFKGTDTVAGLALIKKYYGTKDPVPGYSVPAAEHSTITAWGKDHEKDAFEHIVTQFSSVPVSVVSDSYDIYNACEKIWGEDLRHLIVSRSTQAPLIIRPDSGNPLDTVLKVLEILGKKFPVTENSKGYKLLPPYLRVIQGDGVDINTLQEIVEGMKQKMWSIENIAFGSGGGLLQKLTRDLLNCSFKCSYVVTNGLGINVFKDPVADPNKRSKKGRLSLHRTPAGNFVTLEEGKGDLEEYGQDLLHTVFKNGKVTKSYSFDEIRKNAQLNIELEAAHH

| SMILES | IC50 (NAMPT [1]) [µM] | IC50 (PC3 cells) [µM] | IC50 (NAMPT [2]) [µM] |
| --- | --- | --- | --- |
| CC[C@H](C)C(=O)N1CC[C@H](Oc2ccc(NC(=O)N3CC(c4cccnc4)C3)cc2)C1 [Example 98, N-[4-({(3S)-1-[(2S)-2-methylbutanoyl]pyrrolidin-3-yl}oxy)phenyl]-3-(pyridin-3-yl)azetidine-1-carboxamide] | 0.616 | 0.0709 | 0.00119 |
| CC(=O)N[C@@H](CC(C)C)C(=O)N1CCC(c2ccc(NC(=O)N3CC(c4cccnc4)C3)cc2)CC1 [Example 175, N-{4-[1-(N-acetyl-L-leucyl)piperidin-4-yl]phenyl}-3-(pyridin-3-yl)azetidine-1-carboxamide] | 0.0307 | 0.0675 | 0.000403 |
| Cc1ccsc1C(=O)N1CC(c2ccc(NC(=O)N3CC(c4cccnc4)C3)cc2)C1 [Example 220, N-(4-{1-[(3-methylthiophen-2-yl)carbonyl]azetidin-3-yl}phenyl)-3-(pyridin-3-yl)azetidine-1-carboxamide] | 0.0104 | 0.00415 | 0.00034 |
| O=C(Nc1ccc(C2CCN(CC3CCCC3)CC2)cc1)N1CC(c2cccnc2)C1 [Example 231, N-{4-[1-(cyclopentylmethyl)piperidin-4-yl]phenyl}-3-(pyridin-3-yl)azetidine-1-carboxamide] | 0.421 | 0.361 | 0.000225 |
| O=C(Nc1ccc(C2CCN(C(=O)c3ccccc3)CC2)cc1)N1CC(c2cccnc2)C1 [Example 57, N-[4-(1-benzoylpiperidin-4-yl)phenyl]-3-(pyridin-3-yl)azetidine-1-carboxamide] | 0.00685 | 0.00358 | 0.000222 |
| CN1CCN(CC(=O)N2CCC(c3ccc(NC(=O)N4CC(c5cccnc5)C4)cc3)C2)CC1 (stereo not drawn) [Example 272, N-(4-{1-[(4-methylpiperazin-1-yl)acetyl]pyrrolidin-3-yl}phenyl)-3-(pyridin-3-yl)azetidine-1-carboxamide] | 0.0907 | 0.222 | 0.000241 |
| CC(C)(C)CC(=O)N1CC=C(c2ccc(NC(=O)N3CC(c4cccnc4)C3)cc2)CC1 [Example 17, N-{4-[1-(3,3-dimethylbutanoyl)-1,2,3,6-tetrahydropyridin-4-yl]phenyl}-3-(pyridin-3-yl)azetidine-1-carboxamide] | 0.0169 | 0.0368 | 0.000568 |
| CC[C@H](C)C(=O)N1CC(c2ccc(NC(=O)N3CC(c4cccnc4)C3)cc2)C1 [Example 110, N-(4-{1-[(2S)-2-methylbutanoyl]azetidin-3-yl}phenyl)-3-(pyridin-3-yl)azetidine-1-carboxamide] | 0.0353 | 0.0118 | 0.000421 |
| CCCCC(=O)N1CCC(c2ccc(NC(=O)N3CC(c4cccnc4)C3)cc2)C1 (stereo not drawn) [Example 258, N-[4-(1-pentanoylpyrrolidin-3-yl)phenyl]-3-(pyridin-3-yl)azetidine-1-carboxamide] | 0.0524 | 0.0683 | 0.000359 |
| CCCCC(=O)N1CCC(c2ccc(NC(=O)N3CC(c4cccnc4)C3)cc2)CC1 [Example 163, N-[4-(1-pentanoylpiperidin-4-yl)phenyl]-3-(pyridin-3-yl)azetidine-1-carboxamide] | 0.00723 | 0.0344 | 0.000295 |
| O=C(CC1CCOCC1)N1CCC(c2ccc(NC(=O)N3CC(c4cccnc4)C3)cc2)C1 (stereo not drawn) [Example 64, 3-(pyridin-3-yl)-N-{4-[1-(tetrahydro-2H-pyran-4-ylacetyl)pyrrolidin-3-yl]phenyl}azetidine-1-carboxamide] | 0.0521 | 0.0711 | 0.000171 |
| O=C(CCN1CCOCC1)N1CCC(Oc2ccc(NC(=O)N3CC(c4cccnc4)C3)cc2)CC1 [Example 37, N-[4-({1-[3-(morpholin-4-yl)propanoyl]piperidin-4-yl}oxy)phenyl]-3-(pyridin-3-yl)azetidine-1-carboxamide] | 0.0854 | 0.0729 | 0.000174 |
| CC(C)CCC(=O)N1CCC(c2ccc(NC(=O)N3CC(c4cccnc4)C3)cc2)C1 (stereo not drawn) [Example 275, N-{4-[1-(4-methylpentanoyl)pyrrolidin-3-yl]phenyl}-3-(pyridin-3-yl)azetidine-1-carboxamide] | 0.0383 | 0.0345 | 0.000363 |
| O=C(Nc1ccc(O[C@@H]2CCN(C(=O)c3ccco3)C2)cc1)N1CC(c2cccnc2)C1 [Example 326, N-(4-{[(3R)-1-(furan-2-ylcarbonyl)pyrrolidin-3-yl]oxy}phenyl)-3-(pyridin-3-yl)azetidine-1-carboxamide] | 0.0322 | 0.0165 | 0.000294 |
| O=C(Nc1ccc(O[C@@H]2CCN(C(=O)C3CCCC3)C2)cc1)N1CC(c2cccnc2)C1 [Example 334, N-(4-{[(3R)-1-(cyclopentylcarbonyl)pyrrolidin-3-yl]oxy}phenyl)-3-(pyridin-3-yl)azetidine-1-carboxamide] | 0.0949 | 0.0324 | 0.000449 |
| CC(C)CC(=O)N1CC[C@@H](Oc2ccc(NC(=O)N3CC(c4cccnc4)C3)cc2)C1 [Example 333, N-(4-{[(3R)-1-(3-methylbutanoyl)pyrrolidin-3-yl]oxy}phenyl)-3-(pyridin-3-yl)azetidine-1-carboxamide] | 0.0561 | 0.0224 | 0.000416 |
| CC(C)C(C)C(=O)N1CCC(c2ccc(NC(=O)N3CC(c4cccnc4)C3)cc2)CC1 (stereo not drawn) [Example 197, N-{4-[1-(2,3-dimethylbutanoyl)piperidin-4-yl]phenyl}-3-(pyridin-3-yl)azetidine-1-carboxamide] | 0.0178 | 0.0227 | 0.000505 |
| O=C(CC1CC1)N1CCC(Oc2ccc(NC(=O)N3CC(c4cccnc4)C3)cc2)CC1 [Example 40, N-(4-{[1-(cyclopropylacetyl)piperidin-4-yl]oxy}phenyl)-3-(pyridin-3-yl)azetidine-1-carboxamide] | 0.0505 | 0.0264 | 0.000419 |
| O=C(Nc1ccc(C2=CCN(C(=O)[C@@H]3CCCO3)CC2)cc1)N1CC(c2cccnc2)C1 [Example 11, 3-(pyridine-3-yl)-N-(4-{1-[(2S)-tetrahydrofuran-2-ylcarbonyl]-1,2,3,6-tetrahydropyridin-4-yl}phenyl)azetidine-1-carboxamide] | 0.0158 | 0.00933 | 0.00032 |
| O=C(CCC(F)(F)F)N1CC[C@@H](Oc2ccc(NC(=O)N3CC(c4cccnc4)C3)cc2)C1 [Example 311, 3-(pyridin-3-yl)-N-(4-{[(3R)-1-(4,4,4-trifluorobutanoyl)pyrrolidin-3-yl]oxy}phenyl)azetidine-1-carboxamide] | 0.144 | 0.0471 | 0.000592 |
| Cc1ccc(C(=O)N2CCC(c3ccc(NC(=O)N4CC(c5cccnc5)C4)cc3)C2)s1 (stereo not drawn) [Example 283, N-(4-{1-[(5-methylthiophen-2-yl)carbonyl]pyrrolidin-3-yl}phenyl)-3-(pyridin-3-yl)azetidine-1-carboxamide] | 0.0337 | 0.0617 | 0.000266 |
| O=C(Nc1ccc(OC2CN(C(=O)[C@H]3CCCO3)C2)cc1)N1CC(c2cccnc2)C1 [Example 28, 3-(pyridin-3-yl)-N-[4-({1-[(2R)-tetrahydrofuran-2-ylcarbonyl]azetidin-3-yl}oxy)phenyl]azetidine-1-carboxamide] | 0.0772 | 0.0642 | 0.000218 |
| CCCN1CCC(c2ccc(NC(=O)N3CC(c4cccnc4)C3)cc2)CC1 [Example 241, N-[4-(1-propylpiperidin-4-yl)phenyl]-3-(pyridin-3-yl)azetidine-1-carboxamide] | 0.359 | 0.252 | 0.000255 |
| O=C(Nc1ccc(OC2CN(C(=O)C3CC3)C2)cc1)N1CC(c2cccnc2)C1 [Example 140, N-(4-{[1-(cyclopropylcarbonyl)azetidin-3-yl]oxy}phenyl)-3-(pyridin-3-yl)azetidine-1-carboxamide] | 0.043 | 0.0263 | 0.000181 |
| O=C(Nc1ccc(O[C@@H]2CCN(C(=O)c3nccs3)C2)cc1)N1CC(c2cccnc2)C1 [Example 307, 3-(pyridin-3-yl)-N-(4-{[(3R)-1-(1,3-thiazol-2-ylcarbonyl)pyrrolidin-3-yl]oxy}phenyl)azetidine-1-carboxamide] | 0.0243 | 0.00987 | 0.000197 |
| CC(C)CC(=O)N1CC(Oc2ccc(NC(=O)N3CC(c4cccnc4)C3)cc2)C1 [Example 132, N-(4-{[1-(3-methylbutanoyl)azetidin-3-yl]oxy}phenyl)-3-(pyridin-3-yl)azetidine-1-carboxamide] | 0.0191 | 0.00777 | 0.000634 |
| O=C(Nc1ccc(OC2CCN(C(=O)c3ccsc3)CC2)cc1)N1CC(c2cccnc2)C1 [Example 33, 3-(pyridin-3-yl)-N-(4-{[1-(thiophen-3-ylcarbonyl)piperidin-4-yl]oxy}phenyl)azetidine-1-carboxamide] | 0.0561 | 0.0687 | 0.00043 |
| O=C(Nc1ccc(O[C@@H]2CCN(C(=O)c3ccsc3)C2)cc1)N1CC(c2cccnc2)C1 [Example 308, 3-(pyridin-3-yl)-N-(4-{[(3R)-1-(thiophen-3-ylcarbonyl)pyrrolidin-3-yl]oxy}phenyl)azetidine-1-carboxamide] | 0.0242 | 0.00961 | 0.000293 |
